Data: ChEMBL document CHEMBL1157191, “Syntheses and applications of fluorescent and biotinylated epolactaene derivatives: Epolactaene and its derivative induce disulfide formation” (Bioorg Med Chem, 2008)

Test system: BALL-1
Assay: cytotoxicity against human BALL1 cells by MTT assay
Assay type: functional, cell-based

| SMILES | IC50 |
| --- | --- |
| CCN(CC)c1ccc2cc(NC(=O)OCCCCCCCCCCCC(=O)[C@]34O[C@H]3C(C)(O)NC4=O)c(=O)oc2c1 (some centres undefined) | 1560 nM |
| C\C=C(/C=C(C)/C=C/CC/C=C(\C)C(=O)[C@]12O[C@H]1C(C)(O)NC2=O)C(=O)OC (some centres undefined) [EPOLACTAENE] | 3820 nM |
| CC1(O)NC(=O)[C@@]2(C(=O)CCCCCCCCCCCNC(=O)CCCC[C@@H]3SC[C@@H]4NC(=O)N[C@@H]43)O[C@@H]12 (some centres undefined) | 48300 nM |
| CCCCCCCCCCCC(=O)[C@]12O[C@H]1C(C)(O)NC2=O (some centres undefined) | 1650 nM |
